# Assay: gradient 5% acetonitrile 3 min, to 50% in 2 min, to 85% in 15 min, held 3 min, 100 µL/min
# Details: column: Zorbax Extend-C18 2.1 x 50 mm; eluents: water / acetonitrile, 0.1% formic acid
# How it was run: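 Retention time was recorded from adduct peaks, which were picked computationally and each inspected manually. Pure standards ran in mixtures of ~100 molecules on HPLC coupled to a quadrupole time-of-flight mass spectrometer, in positive and negative ionization mode, through a Zorbax Extend-C18 column (2.1 × 50 mm, 1.8 μm) at 100 μL/min. Eluents were water and acetonitrile, each with 0.1% formic acid.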
row,Structure (SMILES),RP-LC retention time [s]
1,COc1cccc(S(=O)(=O)N2CCC(c3noc(-c4ccccn4)n3)C2)c1 (stereo not given),774
2,CN(CC1(C)CCOCC1)C(=O)NCc1cccc(F)c1,731
3,Cc1ccc(-n2ccnc2SCc2nc(-c3cccc(C)c3)no2)cc1,1020
4,COc1ccc(-c2cn3c(CC(=O)Nc4ccccc4)csc3n2)cc1,760
5,COc1ccccc1C(=O)N1CCN(C2=NS(=O)(=O)c3ccccc32)CC1,698
6,COC(=O)Cn1nc(-c2nc(-c3cccc(Cl)c3)no2)ccc1=O,960
7,O=C(Nc1cccc(C(F)(F)F)c1)c1cnc(-c2ccccc2)nc1-c1ccncc1,859
8,O=C(Cn1c(Cc2ccccc2)nc2ccccc21)N1CCCCCC1,670
9,COCCc1noc(C2Cc3ccccc3N2C(=O)NCc2cccc(OC)c2)n1 (stereo not given),618
10,CCN(CC)CCCNC(=O)CN1C(=O)C2CCCCN2c2ccc(C(=O)N(C)C)cc21 (stereo not given),595
11,CCCC(=O)NC(C)c1nc(-c2ccccc2)no1 (stereo not given),782
12,O=C(NCc1ccc(N2CCOCC2)nc1)c1cccc(Br)c1,626
13,O=C(Cn1ncc2c(N3CCN(c4ccccn4)CC3)ncnc21)Nc1ccc(F)c(F)c1,572
14,Cc1[nH]c(C(=O)Nc2ccc(F)cc2F)c(C)c1S(=O)(=O)N1CCCCC1,949
15,OC1(c2ccccc2)CN(c2ccccc2)C2=[N+]1CCS2 (stereo not given),551
16,CCC(C)NC(=O)CCc1ccc2nc(-c3ccccc3)[nH]c2c1 (stereo not given),621
17,O=C(c1cccc2c1CCN2C(=O)c1ccc(F)cc1)N1CCOCC1,704
18,Cc1cc(S(=O)(=O)Nc2ccc(Cn3cncn3)cc2)ccc1F,743
19,Cc1ccc(-c2nc(N3CC4(C)CC3CC(C)(C)C4)c3ccccc3n2)cc1 (stereo not given),1060
20,Cc1ccccc1-c1nc(-c2ccc(N3CCSCC3)nc2)no1,1320
21,COC[C@H]1NC(=O)CC[C@H]1C(=O)Nc1ccc2c(c1)OCCO2,632
22,COC[C@@H]1OCCN(S(=O)(=O)c2cccc(OC)c2)[C@H]1c1ccccc1,927
23,CCOc1ccc(/C=C2\NC(=S)NC2=O)cc1,840

row,Structure (SMILES),RP-LC retention time [s]
1,COc1ccccc1Cc1noc(C2CN(S(=O)(=O)c3c(C)noc3C)C2)n1,897
2,COc1ccc(-c2noc(-c3nnn(Cc4nc(-c5ccccc5OC)oc4C)c3C)n2)cc1,1100
3,COc1ccc(C2(C(=O)N3C[C@H]4C[C@H](C3)[C@H]3CCCC(=O)N3C4)CC2)cc1,679
4,CCc1ccc(C2=C(C)C(N3CCCN(C(=O)c4ccoc4)CC3)=NS2(=O)=O)cc1,832
5,CCCC1c2nccn2CCCN1C(=O)c1cc(C2CC2)[nH]n1 (stereo not given),596
6,O=C(NCc1ccc2c(c1)OCO2)c1cn(-c2cc(N3CCCC3)ncn2)cn1,775
7,CN1c2ccccc2C(=O)NC12CCN(C(=O)c1ccc(F)c(F)c1)CC2,746
8,O=c1c2nc(-c3cccc(Cl)c3)cn2ccn1-c1ccc(F)cc1,864
9,Cc1cc(N2CCN(C)CC2)nc2ccc(NC(=O)C3CCC(C(C)(C)C)CC3)cc12 (stereo not given),675
10,Cc1ccc(CNC(=O)CCc2c(C)nn(-c3cc(N4CCCCC4)ncn3)c2C)o1,882
11,CCc1ccc(N2CCn3c2nc2c3c(=O)n(CC(=O)O)c(=O)n2C)cc1,785
12,O=C(CCn1nnc2cc(-c3noc(-c4cccc(Br)c4)n3)ccc21)N1CCOCC1,980
13,O=C(c1c(OCC2CC2)cc(=O)n2c1CCCCC2)N1CCOCC1,645
14,Cc1cccc(Cc2cnc[nH]2)c1C,667
15,CCCOc1nc2ccccc2nc1N1CCCC(C(=O)NC2CCCCC2)C1 (stereo not given),1260
16,O=S(=O)(CCc1noc(C2COc3ccccc3O2)n1)c1ccccc1 (stereo not given),927
17,CCCCNC(=O)Cc1c(C)nn(-c2nc(-c3ccc(Cl)cc3)cs2)c1C,1180
18,Cc1ccc(N2CCC(NC(=O)Nc3ccccc3)C2=O)cc1C (stereo not given),870
19,COc1cc(CNC(=O)C2CCCN(c3nccnc3Sc3ccc(C)cc3)C2)cc(OC)c1 (stereo not given),1060
20,CC(=O)N1CCC(C(=O)N2CCCCCCNC(=O)[C@@H]3CCCC[C@@H]32)CC1,657
21,CCc1nc(-c2csc(S(=O)(=O)N3CCC(C(=O)Nc4cc(C)cc(C)c4)CC3)c2)no1,1090
22,O=C(NCc1ccccc1)c1nnc(-c2ccc(S(=O)(=O)N3CCCC3)cc2)o1,879

# — the METLIN SMRT retention time set (Domingo-Almenara et al. 2019)
